The values below come from patent US5880146A, “Inhibition of IL-12-induced IFN-γ synthesis by specific bis-phenol compounds as a method of immune modulation” (Fuji ImmunoPharmaceuticals Corporation, priority 1995, dated 1999).

For series [1], the system named is IL-12 induction of IFN-γ in PHA-activated human PBMC. The series is described as follows: Screening assay for compounds which inhibit IL-12 induction of IFN-γ (ELISA). It counts as cell-based. As to conditions: 5 μg/ml, IL-2 25 U/ml + IL-12 0.5 ng/ml, 48 hr, single test, read-out: % INH of IFNγ. On the procedure:
Human peripheral blood monocytes (PBMC) were obtained from commercial sources as a leukophoresis from a healthy volunteer and were purified by centrifugation on a Ficoll-Hypaque (Pharmacia) gradient (1700 rpm for 20 min). The "buffy" coat containing the PBMC was diluted with serum-free culture medium (SF-RPMI) to a volume of 50 ml and collected by centrifugation at 1500 rpm for 5 min. Cells were resuspended in cell culture medium containing 10% fetal bovine serum (RPMI-10) and phytohemaglutinin (PHA - 10 μg/ml) at a density of 5×10^6 cells/ml and were cultured for 3 days at 37° C. in a humidified CO2 incubator. The PHA-activated cells were collected by centrifugation, washed three times with an equal volume of SF-RPMI and resuspended in fresh RPMI-10 (1×10^6 cells /ml). Aliquots (100 μl) were dispensed into the wells of multiple 96-well plates to give a final cell number of 10^5 per well. Test compounds, dissolved in dimethyl sulfoxide (DMSO) at 1 mg/ml, were first diluted in culture medium to an intermediate concentration of 20 μg/ml and then were added (50 μwell) to a specific well of the plate for each compound. Stimulation medium (50 μl/well) containing 10% serum, IL-2 and IL-12 was added to final concentrations of 25 U/ml and 0.5 ng/ml, respectively. Control wells receive no IL-2 or IL-12 (negative control) or received both interleukins but no test compound (positive control). The plates were incubated for 48 hr at 37° C. in a CO2 incubator at which time aliquots (20 μl) were removed for analysis of IFN-γ concentration by ELISA. A quantitative ELISA was developed by coating 96-well plates with an mouse monoclonal antibody against human IFN-γ, 1 μg/ml in phosphate buffered saline (PBS) (Pestka Biological Laboratories), overnight at 4° C. Unbound antibody was washed off by washing three times with PBS. Non-specific antibody binding was blocked with a solution of 1% bovine serum albumin (BSA) and 1% goat serum in PBS (150 μl/well) which was incubated for 2 hr at 37° C. After washing the blocked plates four times with PBS, test samples and dilutions of the IFN-γ standard are added in a final volume of 100 μl/well. Following an overnight incubation at 4° C., the plates are washed four times with PBS, and a polyclonal rabbit antiserum against human IFN-γ (1/10000 dilution--Petska Biological Laboratories) is added. After an additional incubation for 1 hr at 37° C. and four washes with PBS, a polyclonal donkey anti-rabbit detecting antibody, conjugated to horseradish peroxidase (1/700 dilution--Petska Biological Laboratories) is added for 1 hr at 37° C. The plates are then washed four times with PBS and 100 μl of K-blue substrate E(ILISA Technologies, Neogen Corp.) is added until the color in the wells containing the standard curve is sufficiently developed, at which time 100 μl of "Red-stop" solution (ELISA Technologies) is added. The absorbance of the solution within each well of the plate is then read at 650 nm using an ELISA plate reader (Dynatech MR7000). The amount of IFN-γ is calculated by comparing the optical density of the test sample with a standard curve derived from the dilutions of the control IFN-y. The amount of IFN-γ that is induced in the presence of both IL-2 and IL-12 generally ranges from 1200-2000 pg/ml while the amount produced in the absence of IL-12 is generally less than 50 pg/ml. Experimental data are shown in Table 2 which discloses a) the percent inhibition of IFNγ production, relative to a […], when the cells have been treated with a bis-compound at a final concentration of 5 μg/ml of the listed bis-compound (%INH or IFNγ) and b) the percent of cells which are viable after the treatment with 5 μg/ml of the various bis-compounds, determined by adding MTS to the media (% Viability). MTS is a chemical chromophore that is metabolized in the mitochondria of viable cells to produce a color which increases in intensity in proportion to the numbers of viable cells. […]
A general note: ELISA stands for enzyme-linked immunosorbent assay.

Series [2] can be described thus: Cell viability (MTS) after treatment with bis-compound. The format is cell-based. As to conditions: human, pha-activated pbmc, 5 μg/ml. The method, then: Human peripheral blood monocytes (PBMC) were obtained from commercial sources as a leukophoresis from a healthy volunteer and were purified by centrifugation on a Ficoll-Hypaque (Pharmacia) gradient (1700 rpm for 20 min). The "buffy" coat containing the PBMC was diluted with serum-free culture medium (SF-RPMI) to a volume of 50 ml and collected by centrifugation at 1500 rpm for 5 min. Cells were resuspended in cell culture medium containing 10% fetal bovine serum (RPMI-10) and phytohemaglutinin (PHA - 10 μg/ml) at a density of 5×10^6 cells/ml and were cultured for 3 days at 37° C. in a humidified CO2 incubator. The PHA-activated cells were collected by centrifugation, washed three times with an equal volume of SF-RPMI and resuspended in fresh RPMI-10 (1×10^6 cells /ml). Aliquots (100 μl) were dispensed into the wells of multiple 96-well plates to give a final cell number of 10^5 per well. Test compounds, dissolved in dimethyl sulfoxide (DMSO) at 1 mg/ml, were first diluted in culture medium to an intermediate concentration of 20 μg/ml and then were added (50 μwell) to a specific well of the plate for each compound. Stimulation medium (50 μl/well) containing 10% serum, IL-2 and IL-12 was added to final concentrations of 25 U/ml and 0.5 ng/ml, respectively. Control wells receive no IL-2 or IL-12 (negative control) or received both interleukins but no test compound (positive control). The plates were incubated for 48 hr at 37° C. in a CO2 incubator at which time aliquots (20 μl) were removed for analysis of IFN-γ concentration by ELISA. A quantitative ELISA was developed by coating 96-well plates with an mouse monoclonal antibody against human IFN-γ, 1 μg/ml in phosphate buffered saline (PBS) (Pestka Biological Laboratories), overnight at 4° C. Unbound antibody was washed off by washing three times with PBS. Non-specific antibody binding was blocked with a solution of 1% bovine serum albumin (BSA) and 1% goat serum in PBS (150 μl/well) which was incubated for 2 hr at 37° C. After washing the blocked plates four times with PBS, test samples and dilutions of the IFN-γ standard are added in a final volume of 100 μl/well. Following an overnight incubation at 4° C., the plates are washed four times with PBS, and a polyclonal rabbit antiserum against human IFN-γ (1/10000 dilution--Petska Biological Laboratories) is added. After an additional incubation for 1 hr at 37° C. and four washes with PBS, a polyclonal donkey anti-rabbit detecting antibody, conjugated to horseradish peroxidase (1/700 dilution--Petska Biological Laboratories) is added for 1 hr at 37° C. The plates are then washed four times with PBS and 100 μl of K-blue substrate E(ILISA Technologies, Neogen Corp.) is added until the color in the wells containing the standard curve is sufficiently developed, at which time 100 μl of "Red-stop" solution (ELISA Technologies) is added. The absorbance of the solution within each well of the plate is then read at 650 nm using an ELISA plate reader (Dynatech MR7000). The amount of IFN-γ is calculated by comparing the optical density of the test sample with a standard curve derived from the dilutions of the control IFN-y. […] MTS is a chemical chromophore that is metabolized in the mitochondria of viable cells to produce a color which increases in intensity in proportion to the numbers of viable cells. The absorbance of the cell culture can be compared to control cultures in order to determine the percent viability.

The nature of series [3]: Toxicity of bis-compounds after single systemic dose. It counts as in vivo. To be noted: mouse, in vivo; IV; 20% DMSO, 16% cremaphor; conc. sol. 10 mg/ml; single dose.
Series [4] concerns mice. The description is as above. It counts as in vivo. To be noted: 20% DMSO, 16% cremaphor, 10 mg/ml.

Broadly, the viability is a read-out of living cells in per cent, often relative to untreated cells. With `Cc1cc(C(c2ccccc2)c2cc(C)c(O)c(C(C)(C)C)c2)cc(C(C)(C)C)c1O` [Compound 54058], the inhibition at 5 µg/mL in series [1] turned out to be 88%. The viability in series [2] stood at 86%.

Consider `CCC(c1cc(C)cc(C(C)(C)C)c1O)c1cc(C)cc(C(C)(C)C)c1O` [Compound 54008], for which the inhibition at 5 µg/mL in series [1] was determined as 91%. Further, the viability in series [2] stood at 69%.

As for `Cc1cc(Cl)cc(Cc2cc(Cl)cc(C)c2O)c1O` [Compound 8296], the inhibition at 5 µg/mL in series [1] was found to be 103%. In addition, in series [2], the viability came out at 37%.

Take `Cc1cc(C(c2ccc(Cl)cc2)c2cc(C)c(O)c(C)c2)cc(C)c1O` [Compound 54042]: the inhibition at 5 µg/mL in series [1] was 28%. Moreover, in series [2], the viability was determined as 102%.

`CCCCCCC(C)(c1ccc(O)cc1)c1ccc(O)c(C)c1` (stereo not drawn) [Compound 54059]: the inhibition at 5 µg/mL in series [1] is 64%. Moreover, the viability in series [2] stood at 88%.

Consider `Cc1cc(C(C)c2cc(C)cc(C(C)(C)C)c2O)c(O)c(C(C)(C)C)c1` [Compound 54005], for which the inhibition at 5 µg/mL in series [1] amounted to 96%. Besides, in series [2], the viability was 30%.

`CC(C)(C)CC(C)(C)c1cc2c(cc1O)C(C)(C)c1cc(O)c(C(C)(C)CC(C)(C)C)cc1O2` [Compound 53437]: the inhibition at 5 µg/mL in series [1] turned out to be 74%. Also, in series [2], the viability was found to be 85%.

The term LD50 denotes the dose expected to kill half of the subjects tested. Read a high LD50 as a less toxic substance. As for `Cc1cc(C(C)(C)c2cc(C)c(O)c(C)c2)cc(C)c1O` [Compound 54046], the LD50 in series [3] was over 150 mg/kg. Moreover, the “Results (Dead/Alive)” value in series [4] (100 mg/kg IV) and in series [4] (150 mg/kg IV) was “Alive” throughout. In addition, in series [2], the viability was found to be 95%.

For the compound `CCC(C)(c1cc(C)c(O)c(C)c1)c1cc(C)c(O)c(C)c1` [Compound 54056], the inhibition at 5 µg/mL in series [1] was 84%. Besides, in series [2], the viability was 87%.

For the compound `CC(C)(C)c1cc(C(c2ccc(C(=O)O)cc2)c2cc(C(C)(C)C)c(O)c(C(C)(C)C)c2)cc(C(C)(C)C)c1O` [Compound 54055], in series [1], the inhibition at 5 µg/mL came out at 83%. In addition, in series [2], the viability is 88%.

With `Cc1cc(C(c2ccc([N+](=O)[O-])cc2)c2cc(C)c(O)c(C(C)(C)C)c2)cc(C(C)(C)C)c1O` [Compound 54053], in series [1], the inhibition at 5 µg/mL is 93%. For the same compound, the viability in series [2] came to 33%.

On to `CCCCCCC(C)(c1ccc(O)c(C)c1)c1ccc(O)c(C)c1` [Compound 54094], for which the viability in series [2] amounted to 25%.

As to `CCCC(C)(c1ccc(O)cc1)c1ccc(O)c(C)c1` (stereo not drawn) [Compound 54063], the viability in series [2] is 93%.

For `CCC(c1cc(C)c(O)c(C)c1)c1cc(C)c(O)c(C)c1` [Compound 54471], in series [1], the inhibition at 5 µg/mL is 89%. In series [2], the viability turned out to be 83%.

As for `Cc1cc(C(c2cc(C)c(O)c(C)c2)c2ccc(O)c(O)c2)cc(C)c1O` [Compound 54004], the inhibition at 5 µg/mL in series [1] was -37%. Besides, the viability in series [2] amounted to 99%.

Take `CCC(c1cc(C)c(O)c(C(C)C)c1)c1cc(C)c(O)c(C(C)C)c1` [Compound 54109]: the inhibition at 5 µg/mL in series [1] was found to be 93%. Further, in series [2], the viability was 33%.

`Cc1cc(C(c2ccc(C(=O)O)cc2)c2cc(C)c(O)c(C)c2)cc(C)c1O` [Compound 54050]: the inhibition at 5 µg/mL in series [1] came out at 63%. Also, the viability in series [2] was found to be 86%.

With `Cc1cc(C2(c3ccc(O)c(C)c3)CCCCC2)ccc1O` [Compound 54048], the inhibition at 5 µg/mL in series [1] is 68%. Further, the viability in series [2] was 79%.

In the case of `CCCC(c1cc(C)cc(C)c1O)c1cc(C)cc(C)c1O` [Compound 51851], in series [1], the inhibition at 5 µg/mL stood at 86%. In addition, the viability in series [2] stood at 107%.

For the compound `Cc1cc(O)c(C(C)C)cc1C(c1ccccc1)c1cc(C(C)C)c(O)cc1C` [Compound 54007], in series [1], the inhibition at 5 µg/mL was determined as 95%. Besides, in series [2], the viability is 26%.

As for `Cc1cc(C(c2ccc(C(=O)O)cc2)c2cc(C)c(O)c(C(C)(C)C)c2)cc(C(C)(C)C)c1O` [Compound 54346], in series [1], the inhibition at 5 µg/mL turned out to be 91%. Moreover, the viability in series [2] turned out to be 84%.

For the compound `CCCC(CCC)(c1ccc(O)cc1)c1ccc(O)c(C)c1` [Compound 54099], the viability in series [2] worked out at 93%.

With `CC(C)(C)c1cc2c(cc1O)C(C)(C)c1cc(O)c(C(C)(C)C)cc1O2` [Compound 53433], in series [1], the inhibition at 5 µg/mL worked out at 97%. Also, the viability in series [2] came out at 26%.

Turning to `Cc1cc(C(C)c2cc(C)c(O)c(C(C)(C)C)c2)cc(C(C)(C)C)c1O` [Compound 54054], in series [1], the inhibition at 5 µg/mL is 98%. In series [2], the viability worked out at 27%.

Consider `Cc1cc(C(c2ccc(C(C)C)cc2)c2cc(C)c(O)c(C)c2)cc(C)c1O` [Compound 54114], for which the inhibition at 5 µg/mL in series [1] worked out at 65%. Further, the viability in series [2] turned out to be 96%.

On to `CCC(c1cc(C)c(O)c(C(C)(C)C)c1)c1cc(C)c(O)c(C(C)(C)C)c1` [Compound 54472], for which, in series [1], the inhibition at 5 µg/mL stood at 98%. In series [2], the viability came out at 26%.
